We go through one cell line from the supplement of paper PMC10307832.

Assay in all cases: relative viability (nuclei count vs DMSO), 5 days (fraction); higher = more cells survive
Compound in test [1]: CC1=CC(=CC=C1)NC2=NC(=CS2)C3=CC=NC=C3 + COc1cc2c(Oc3ccc(NC(=O)C4(C(=O)Nc5ccc(F)cc5)CC4)cc3F)ccnc2cc1OCCCN1CCOCC1 [Foretinib] (partner 0.25 µM)
An outline of the steps:
(§1)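 Values are medians from duplicate plates. Each reflects relative viability, defined as the nuclei count of treated wells over that of vehicle wells. Lung cancer cell lines in 1536-well plates were pin-tool dosed one day after seeding with one drug alone or with a fixed anchor-drug dose plus five library-drug doses (not always all listed) in √10 steps, then fixed, stained and imaged at 4× after 5 days.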

Compound in test [2]: Cc1ccc(NC(=O)c2ccc(CN3CCN(C)CC3)cc2)cc1Nc1nc(-c2cccnc2)cs1 [Masitinib] + CS(=O)(=O)N1CCN(Cc2cc3nc(-c4cccc5[nH]ncc45)nc(N4CCOCC4)c3s2)CC1 [Pictilisib] (partner 1 µM)
An outline of the steps: as §1

Compound in test [3]: Cc1ccc(NC(=O)c2ccc(CN3CCN(C)CC3)cc2)cc1Nc1nc(-c2cccnc2)cs1 [Masitinib] + C[C@@H](Oc1cc(-c2cnn(C3CCNCC3)c2)cnc1N)c1c(Cl)ccc(F)c1Cl [Crizotinib] (partner 1 µM)
An outline of the steps:
as §1

Compound in test [4]: Cc1ccc(NC(=O)c2ccc(CN3CCN(C)CC3)cc2)cc1Nc1nc(-c2cccnc2)cs1 [Masitinib] + C[C@]1(O)C[C@@H](c2nc(-c3ccc4ccc(-c5ccccc5)nc4c3)c3c(N)nccn32)C1 [Linsitinib] (partner 1 µM)
An outline of the steps:
as §1

For the cell line UMC-11, the relative viability in test [1] (first compound 0.08 µM) amounted to 1.04; in test [1] (first compound 0.253 µM), 1.04; in test [1] (first compound 0.8 µM) it was 1.02; in test [1] (first compound 2.53 µM), 1.15; in test [1] (first compound 8 µM), 1.17; in test [2] (first compound 0.01 µM), 0.744. In addition, the relative viability in test [2] (first compound 0.03162 µM) was 0.862; in test [2] (first compound 0.1 µM) it was 0.948; in test [2] (first compound 0.3162 µM), 0.972; in test [2] (first compound 1 µM) it was 0.856; in test [3] (first compound 0.01 µM), 0.467; in test [3] (first compound 0.03162 µM), 0.677. For the same cell line, the relative viability was found to be 0.706 in test [3] (first compound 0.1 µM); 0.571 in test [3] (first compound 0.3162 µM); 0.691 in test [3] (first compound 1 µM); 0.982 in test [4] (first compound 0.01 µM); 1.12 in test [4] (first compound 0.03162 µM); 1.27 in test [4] (first compound 0.1 µM). Further, the relative viability in test [4] (first compound 0.3162 µM) is 1.07; in test [4] (first compound 1 µM), 1.25.
